System: Human iPS cell WTC-11 strain
Experiment: Quantitative real-time PCR of marker genes after suspension culture (Example 2)
Type: cell-based
Conditions: WTC-11, day 10 of suspension culture, inhibitor(s) in medium
Protocol: After the EDTA solution was sucked up, StemFit® AK02N medium was added to the dish, cells were detached with a cell scraper, and then dispersed into single cells by pipetting. […] Into a 6-well plate for suspension culture (Sumitomo Bakelite Co., Ltd.), 4 mL of the cell suspension was seeded per well. On a rotary shaker (Optima Co., Ltd.), the plate into which the cells had been seeded was rotated along a circle having a rotation width (diameter) of 25 mm in the horizontal plane at a speed of 90 rpm, and suspension culture was performed under an environment at 37° C. and 5% CO2. Subculture was performed on day 5 of culture as the day on which the cells were seeded was defined as day 0 of culture, and suspension culture was performed until day 10 of culture. Medium exchange was performed on day 2, 4, 7, and 9 of culture. […] On day 5 of culture, a cell aggregate and culture supernatant were collected from each well into a centrifuge tube, left to stand for about 5 minutes to precipitate the cell aggregate, and the culture supernatant was removed. […]
Quantitative real-time PCR analysis was performed with a procedure shown in the following. […] Quantitative real-time PCR analysis was carried out by using a TaqMan® QuantStudio3 real-time PCR system (Thermo Fisher Scientific).

Row | SMILES | ACTB-normalized relative gene expression level (2^−ΔCt) OCT4
1 | O=C(Nc1cccc2cccnc12)c1ccc(N2C(=O)[C@@H]3[C@H](C2=O)[C@@H]2C=C[C@H]3C2)cc1 [Comparative Example 2, 4-(1,3,3a,4,7,7a-hexahydro-1,3-dioxo-4,7-methano-2H-isoindol-2-yl)-N-8-quinolinyl-benzamide] | 2.05
2 | COc1ccc2c(c1)c(C1=C(c3c[nH]c4ccccc34)C(=O)NC1=O)cn2CCCN(C)C [Comparative Example 3, 3-[1-[3-(dimethylamino)propyl]-5-methoxy-1H-indol-3-yl]-4-(1H-indol-3-yl)-1H-pyrrole-2,5-dione] | 3.30 × 10^−3
